Values of other authors in patent US6500833B1, “(+)-Hydroxyrisperidone compositions and methods” (priority 1998, dated 2002).

Conditions: condition associated with torsades de pointes

Which “prolongation of QT interval” value does the source give for Cc1nc2n(c(=O)c1CCN1CCC(c3noc4cc(F)ccc34)CC1)CCCC2O (racemic) [hydroxyrisperidone, 9-hydroxyrisperidone] here?
The value was “implicated in a prolongation of QT interval”.

For Cc1nc2n(c(=O)c1CCN1CCC(c3noc4cc(F)ccc34)CC1)CCCC2 [risperidone, Risperidone], which “prolongation of QT interval” value is on record?
Its value is “implicated in a prolongation of QT interval”.
